Experimental data: patent publication US20040048814A1, “Sustained release composition contraining clarithromycin” (priority 2000, published 2004)
Like-named read-outs stand apart in the source and are kept apart here.

Key:
[1] = In vitro dissolution test, paddle apparatus, pH 5.0 phosphate buffer; assay type: physicochemical; details: pH 5.0, 100 rpm, 900 ml
Excerpt: The dissolution test is usually the most appropriate analytical tool to assess the quality of the oral formulations and especially of sustained release oral formulations.

[2] = cited from earlier work
[3] = cited from earlier work; remark: listed apart in the source

## CC[C@H]1OC(=O)[C@H](C)[C@@H](O[C@H]2C[C@@](C)(OC)[C@@H](O)[C@H](C)O2)[C@H](C)[C@@H](O[C@@H]2O[C@H](C)C[C@H](N(C)C)[C@H]2O)[C@](C)(OC)C[C@@H](C)C(=O)[C@H](C)[C@@H](O)[C@]1(C)O [clarithromycin, Clarithromycin]
[1]; after 5 minutes, amount of coating 12% of the weight of the core
  % of dissolved clarithromycin: about 40%
[1]; after 5 minutes, amount of coating 14% of the weight of the core
  % of dissolved clarithromycin: about 20%
[1]; after about 5 minutes, amount of coating 10% of the weight of the core
  % of dissolved clarithromycin: about 80%
[2]; food intake immediately before administration
  increase of bioavailability by food intake (mean): 25%
[2]; oral administration
  time to achieve peak blood concentrations: about 2 hours
[2]; oral dose of 250 mg
  availability after an oral dose: ~55%
[3]; pH below 5
  water solubility: good and quite constant
[3]; pH greater than 5
  solubility: decreases dramatically
[3]; pH=8
  solubility: quasi nil
